Results reported in patent US20220298213A1, “IN VIVO ENGINEERED CEREBLON PROTEIN” (Vividion Therapeutics, Inc., priority 2018, published 2022).
Where two headings read alike, the source gives them in different places.

Legend:
Type in all cases: binding
CRBN Cys343 = biological target: T1, CRBN Cys343 (Homo sapiens, UniProt Q96SW2); assay: Inhibition of iodoacetamide probe labeling of CRBN cysteines, cell lysate (Table 3A); details: read-out: % inhibition of iodoacetamide probe labeling, Cys343
T1 construct: endogenous in cells
Protocol: (§1) “X@Y” means that x % inhibition of iodoacetamide probe labeling was observed by treatment of cell lysate with the give compound in each row of the table for 1 h at a concentration of y micromolar. There was consistently high inhibition at C318 in addition to C287, which can be attributed to an allosteric inhibition.

CRBN Cys219 = biological target: T2, CRBN Cys219 (Homo sapiens, UniProt Q96SW2); assay: as above; details: read-out: % inhibition of iodoacetamide probe labeling, Cys219
T2 construct: endogenous in cells
Protocol: as §1

CRBN Cys234 = biological target: T3, CRBN Cys234 (Homo sapiens, UniProt Q96SW2); assay: as above; details: read-out: % inhibition of iodoacetamide probe labeling, Cys234
T3 construct: endogenous in cells
Protocol: as §1

CRBN Cys287 = biological target: T4, CRBN Cys287 (Homo sapiens, UniProt Q96SW2); assay: as above
T4 construct: endogenous in cells
Protocol: as §1

CRBN Cys318 = biological target: T5, CRBN Cys318 (Homo sapiens, UniProt Q96SW2); assay: as above
T5 construct: endogenous in cells
Protocol: as §1

CRBN Cys205 = biological target: T6, CRBN Cys205 (Homo sapiens, UniProt Q96SW2); assay: as above; details: read-out: % inhibition of iodoacetamide probe labeling, Cys205
T6 construct: endogenous in cells
Protocol: as §1

BTK_481 = biological target: T7, BTK_481 (Homo sapiens, UniProt Q06187); assay: Probe labeling at native and denatured states after pretreatment (Table 2); details: screening concentration; for inhibition of probe labeling, BTK_481, Den.: denatured state; for inhibition of probe labeling, BTK_481, Nat.: native state
T7 construct: In each the cell lysate was pretreated with compound; endogenous in cells

CRBN-318 = CRBN-318 (Homo sapiens, UniProt Q96SW2); assay: as above; design: endogenous in cells; host or cells: cell lysate; details: for inhibition of probe labeling, CRBN_318, Nat.: native state, cell lysate pretreated
Protocol: (§2) To determine whether the co-inhibition of C287 and C318 was due to a direct or indirect mechanism, CRBN was pretreated with various Michael acceptor compounds and then tested for probe labeling in its native and denatured states.
(§3) In each the cell lysate was pretreated with compound, for native state data the probe was immediately added and for denatured data the probe was added after an additional step of denaturation (schematic shown in FIG. 4).

CRBN-287 = CRBN-287 (Homo sapiens, UniProt Q96SW2); assay: as above; design: endogenous in cells; host or cells: cell lysate; details: for inhibition of probe labeling, CRBN_287, Nat.: native state, cell lysate pretreated
Protocol: as §2, §3

CRBN_205 = biological target: T8, CRBN_205 (Homo sapiens, UniProt Q96SW2); assay: as above
T8 construct: endogenous in cells; host or cells: cell lysate
Protocol: as §2, §3

CRBN_310 = biological target: T9, CRBN_310 (Homo sapiens, UniProt Q96SW2); assay: as above
T9 construct: endogenous in cells; host or cells: cell lysate
Protocol: as §2, §3

CRBN_234 = biological target: T10, CRBN_234 (Homo sapiens, UniProt Q96SW2); assay: as above
T10 construct: endogenous in cells; host or cells: cell lysate
Protocol: as §2, §3

CRBN_326 = biological target: T11, CRBN_326 (Homo sapiens, UniProt Q96SW2); assay: as above
T11 construct: endogenous in cells; host or cells: cell lysate
Protocol: as §2, §3

CRBN_322 = biological target: T12, CRBN_322 (Homo sapiens, UniProt Q96SW2); assay: as above
T12 construct: endogenous in cells; host or cells: cell lysate
Protocol: as §2, §3

CRBN_188 = biological target: T13, CRBN_188 (Homo sapiens, UniProt Q96SW2); assay: as above
T13 construct: endogenous in cells; host or cells: cell lysate
Protocol: as §2, §3

CRBN_343 = biological target: T14, CRBN_343 (Homo sapiens, UniProt Q96SW2); assay: as above
T14 construct: endogenous in cells; host or cells: cell lysate
Protocol: as §2, §3

CRBN_219 = biological target: T15, CRBN_219 (Homo sapiens, UniProt Q96SW2); assay: as above
T15 construct: endogenous in cells; host or cells: cell lysate
Protocol: as §2, §3

CRBN_441 = biological target: T16, CRBN_441 (Homo sapiens, UniProt Q96SW2); assay: as above
T16 construct: endogenous in cells; host or cells: cell lysate
Protocol: as §2, §3

TEC_449 = biological target: T17, TEC_449 (Homo sapiens, UniProt P42680); assay: as above; details: screening concentration; for inhibition of probe labeling, TEC_449, Den.: denatured state; for inhibition of probe labeling, TEC_449, Nat.: native state
T17 construct: In each the cell lysate was pretreated with compound; endogenous in cells
T17 sequence (P42680 1-631): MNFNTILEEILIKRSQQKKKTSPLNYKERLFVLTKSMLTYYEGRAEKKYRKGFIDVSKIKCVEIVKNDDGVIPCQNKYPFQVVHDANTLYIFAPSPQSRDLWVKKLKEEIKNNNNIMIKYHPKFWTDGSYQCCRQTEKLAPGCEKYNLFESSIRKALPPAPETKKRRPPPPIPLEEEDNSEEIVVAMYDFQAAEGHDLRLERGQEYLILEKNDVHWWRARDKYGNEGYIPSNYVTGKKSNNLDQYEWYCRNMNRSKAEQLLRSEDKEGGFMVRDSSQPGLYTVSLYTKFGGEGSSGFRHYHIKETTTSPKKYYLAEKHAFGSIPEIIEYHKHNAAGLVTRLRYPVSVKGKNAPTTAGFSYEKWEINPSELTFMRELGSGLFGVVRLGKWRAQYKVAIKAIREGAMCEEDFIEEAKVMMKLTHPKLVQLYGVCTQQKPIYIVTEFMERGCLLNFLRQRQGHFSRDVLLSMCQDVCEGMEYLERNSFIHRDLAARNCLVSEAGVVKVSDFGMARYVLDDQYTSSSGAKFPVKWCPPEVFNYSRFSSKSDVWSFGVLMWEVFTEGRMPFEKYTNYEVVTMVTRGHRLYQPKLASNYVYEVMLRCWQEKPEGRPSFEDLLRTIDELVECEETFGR

[1] = 0.8 micromolar, cell lysate, 1 h
[2] = 20 micromolar, cell lysate, 1 h
[3] = read-out: % inhibition of iodoacetamide probe labeling, Cys287
[4] = denatured state, probe added after denaturation, screening concentration
[5] = denatured state, screening concentration
[6] = native state, screening concentration

T16 sequence (Q96SW2 whole entry): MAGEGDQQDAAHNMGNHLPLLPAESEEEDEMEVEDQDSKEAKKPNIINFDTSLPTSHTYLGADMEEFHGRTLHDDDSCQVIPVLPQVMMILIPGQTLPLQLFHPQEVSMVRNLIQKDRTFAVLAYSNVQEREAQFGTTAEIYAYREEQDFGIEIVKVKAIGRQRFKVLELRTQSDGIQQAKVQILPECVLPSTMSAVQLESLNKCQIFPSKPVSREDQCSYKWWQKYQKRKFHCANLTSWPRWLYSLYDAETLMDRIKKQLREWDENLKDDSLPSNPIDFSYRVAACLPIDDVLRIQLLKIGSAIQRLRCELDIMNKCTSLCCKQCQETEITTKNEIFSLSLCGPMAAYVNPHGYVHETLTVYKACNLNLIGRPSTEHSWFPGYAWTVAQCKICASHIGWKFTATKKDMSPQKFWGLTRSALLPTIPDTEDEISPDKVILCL
T9 sequence (Q96SW2 whole entry): as above
T15 sequence (Q96SW2 whole entry): as above
T13 sequence (Q96SW2 whole entry): as above
T14 sequence (Q96SW2 whole entry): as above
T12 sequence (Q96SW2 whole entry): as above
T5 sequence (Q96SW2 whole entry): as above
Chain of CRBN-318 (Q96SW2 whole entry): as above
Chain of CRBN-287 (Q96SW2 whole entry): as above
T10 sequence (Q96SW2 whole entry): as above
T4 sequence (Q96SW2 whole entry): as above
T8 sequence (Q96SW2 whole entry): as above
T11 sequence (Q96SW2 whole entry): as above
T7 sequence (Q06187 whole entry): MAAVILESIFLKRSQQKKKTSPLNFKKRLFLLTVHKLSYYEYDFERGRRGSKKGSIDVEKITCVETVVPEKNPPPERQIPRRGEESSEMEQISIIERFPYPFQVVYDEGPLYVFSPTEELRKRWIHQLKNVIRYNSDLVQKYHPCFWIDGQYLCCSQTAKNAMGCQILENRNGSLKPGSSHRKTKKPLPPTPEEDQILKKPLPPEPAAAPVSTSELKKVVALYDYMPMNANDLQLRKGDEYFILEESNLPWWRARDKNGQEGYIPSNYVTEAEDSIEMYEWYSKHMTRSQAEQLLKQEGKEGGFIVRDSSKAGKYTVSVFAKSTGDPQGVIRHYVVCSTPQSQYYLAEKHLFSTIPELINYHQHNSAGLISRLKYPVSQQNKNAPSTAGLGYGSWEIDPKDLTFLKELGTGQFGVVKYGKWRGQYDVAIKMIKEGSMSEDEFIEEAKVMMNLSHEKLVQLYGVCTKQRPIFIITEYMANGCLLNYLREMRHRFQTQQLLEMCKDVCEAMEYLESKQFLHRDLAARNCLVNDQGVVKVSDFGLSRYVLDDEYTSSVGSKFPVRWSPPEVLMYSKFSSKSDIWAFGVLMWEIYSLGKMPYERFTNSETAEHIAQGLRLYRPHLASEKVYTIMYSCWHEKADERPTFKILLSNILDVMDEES
T6 sequence (Q96SW2 whole entry): as the sequence (Q96SW2 whole entry) above
T2 sequence (Q96SW2 whole entry): as above
T3 sequence (Q96SW2 whole entry): as above
T1 sequence (Q96SW2 whole entry): as above

| inhibition of probe labeling, BTK_481, Den. (BTK_481) [%] | inhibition of probe labeling, BTK_481, Nat. (BTK_481) [%] | inhibition of probe labeling, CRBN_318, Den. (CRBN-318; [4]) [%] | inhibition of probe labeling, CRBN_318, Nat. (CRBN-318; screening concentration) [%] | inhibition of probe labeling, CRBN_287, Den. (CRBN-287; [4]) [%] | inhibition of probe labeling, CRBN_287, Nat. (CRBN-287; screening concentration) [%] | inhibition of probe labeling, CRBN_205, Den. (CRBN_205; [5]) [%] | inhibition of probe labeling, CRBN_205, Nat. (CRBN_205; [6]) [%] | inhibition of probe labeling, CRBN_310, Den. (CRBN_310; [5]) [%] | inhibition of probe labeling, CRBN_310, Nat. (CRBN_310; [6]) [%] | inhibition of probe labeling, CRBN_234, Den. (CRBN_234; [5]) [%] | inhibition of probe labeling, CRBN_234, Nat. (CRBN_234; [6]) [%] | inhibition of probe labeling, CRBN_326, Den. (CRBN_326; [5]) [%] | inhibition of probe labeling, CRBN_322, Den. (CRBN_322; [5]) [%] | inhibition of probe labeling, CRBN_322, Nat. (CRBN_322; [6]) [%] | inhibition of probe labeling, CRBN_188, Den. (CRBN_188; [5]) [%] | inhibition of probe labeling, CRBN_188, Nat. (CRBN_188; [6]) [%] | inhibition of probe labeling, CRBN_343, Den. (CRBN_343; [5]) [%] | inhibition of probe labeling, TEC_449, Den. (TEC_449) [%] | inhibition of probe labeling, TEC_449, Nat. (TEC_449) [%] | SMILES | also measured |
| --- | --- | --- | --- | --- | --- | --- | --- | --- | --- | --- | --- | --- | --- | --- | --- | --- | --- | --- | --- | --- | --- |
| – | – | – | – | – | – | – | – | – | – | – | – | – | – | – | – | – | – | – | – | COc1ccccc1-c1cccc(OC2CN(C(=O)/C(C#N)=C/C(C)C)C2)c1 [Example A8] | inhibition at 100 µM (CRBN Cys343): 10%; inhibition at 100 µM (CRBN Cys219): -5%; inhibition at 500 µM (CRBN Cys219): 4%; inhibition at 100 µM (CRBN Cys234): 31%; inhibition at 500 µM (CRBN Cys234): 44%; inhibition at 0.8 µM (CRBN Cys287; [1]): 80%; inhibition at 20 µM (CRBN Cys287; [2]): 94%; inhibition at 100 µM (CRBN Cys287; [3]): 96%; inhibition at 500 µM (CRBN Cys287; [3]): 98%; inhibition at 0.8 µM (CRBN Cys318; [1]): 76%; inhibition at 20 µM (CRBN Cys318; [2]): 90%; inhibition at 100 µM (CRBN Cys318; read-out: % inhibition of iodoacetamide probe labeling, Cys318, 100 micromolar, cell lysate, 1 h): 93%; inhibition at 500 µM (CRBN Cys318; read-out: % inhibition of iodoacetamide probe labeling, Cys318, 500 micromolar, cell lysate, 1 h): 96%; inhibition at 100 µM (CRBN Cys205): 19%; inhibition at 500 µM (CRBN Cys205): 32% |
| 21 | 52 | 38 | 92 | 91 | 98 | 4 | −4 | 43 | 54 | 26 | 11 | −6 | 19 | 25 | −28 | −18 | −5 | 33 | 28 | C=CC(=O)N1CCC(Oc2cc(C#N)cc(-c3ccccc3OC)c2)CC1 [drawing 205] | inhibition of probe labeling, CRBN_219, Den. (CRBN_219; [5]): −2%; inhibition of probe labeling, CRBN_219, Nat. (CRBN_219; [6]): −36%; inhibition of probe labeling, CRBN_441, Den. (CRBN_441; [5]): −6% |
| −28 | 2 | 28 | 82 | 76 | 91 | 0 | −20 | 35 | 46 | 21 | 27 | −15 | 27 | 2 | −44 | −16 | −12 | −4 | 4 | C=CC(=O)N1CCC(Oc2cccc(-c3ccccc3OC)c2)CC1 [drawing 206] | inhibition of probe labeling, CRBN_219, Den. (CRBN_219; [5]): 12%; inhibition of probe labeling, CRBN_219, Nat. (CRBN_219; [6]): −25%; inhibition of probe labeling, CRBN_441, Den. (CRBN_441; [5]): −22% |
| 98 | 97 | – | – | – | – | – | – | – | – | – | – | – | – | – | – | – | – | 95 | 96 | C=CC(=O)N(c1ccccc1)c1ccc(Br)cc1 [reference compound] | inhibition of probe labeling, CRBN_318, Den. (CRBN-318): 53%; inhibition of probe labeling, CRBN_287, Den. (CRBN-287): 59%; inhibition of probe labeling, CRBN_205, Den. (CRBN_205): 13%; inhibition of probe labeling, CRBN_205, Nat. (CRBN_205): −23%; inhibition of probe labeling, CRBN_310, Den. (CRBN_310): 50%; inhibition of probe labeling, CRBN_310, Nat. (CRBN_310): 2%; inhibition of probe labeling, CRBN_234, Den. (CRBN_234): 45%; inhibition of probe labeling, CRBN_234, Nat. (CRBN_234): −4%; inhibition of probe labeling, CRBN_326, Den. (CRBN_326): −8%; inhibition of probe labeling, CRBN_322, Den. (CRBN_322): 29%; inhibition of probe labeling, CRBN_322, Nat. (CRBN_322): 29%; inhibition of probe labeling, CRBN_188, Den. (CRBN_188): −6%; inhibition of probe labeling, CRBN_188, Nat. (CRBN_188): −36%; inhibition of probe labeling, CRBN_343, Den. (CRBN_343): −10%; inhibition of probe labeling, CRBN_219, Den. (CRBN_219): 57%; inhibition of probe labeling, CRBN_219, Nat. (CRBN_219): 40%; inhibition of probe labeling, CRBN_441, Den. (CRBN_441): −26% |
